Entries after “also recorded” stand apart in the source; their conditions may differ.
Tests used:
diabetic mice (db/db) [1] = assay: Immunohistochemical evaluation of apoptosis (TUNEL staining of retina sections) after topical ocular treatment; assay type: in vivo
Procedure: (§1) In tests 12 male db/db mice aged 10 weeks (Harlan Laboratories, Inc.) were used, and were divided into two groups: 6 of these mice were treated with a formulation of the present invention, and 6 mice with a sodium chloride solution, as described below. 6 non-diabetic (db/+) mice matched by age were also used as the control group.
(§2) On day 15, approximately 1 hour before necropsy, a drop of formulation of the present invention or vehicle was instilled in the eyes of the animals. Following euthanasia, eyes were enucleated. The neuroretina from one of the eyes was extracted, frozen in liquid nitrogen and stored at a temperature of −80° C. The other eye was fixed with a solution of 4% paraformaldehyde, processed routinely, and embedded in paraffin blocks.
Immunohistochemical analysis for apoptosis assessment was carried out TUNEL (Terminal Transferase dUTP Nick-End Labeling) staining using the DeadEnd Fluorometric TUNEL System Kit (Promega, Madison, Wis., USA).
Cryosections of retina were permeabilized by incubation on ice for 2 min with 0.1% Triton X-100 and 0.1% sodium citrate freshly prepared solution. The secondary antibody was Alexa 488 goat anti-rabbit (Invitrogen, San Diego Calif., USA). For evaluation by Laser Scanning Confocal microscopy, the excitation wavelength was 488 nm and detection in the range from 515 to 565 nm, which corresponds to green colour.
The evaluation was carried out in the retina of each animal and a minimum of 10 sections per retina.

diabetic mice (db/db) [2] = assay: Determination of glial activation (GFAP staining score, confocal microscopy of retina sections) after topical ocular treatment; assay type: in vivo
Procedure: as §1, §2
Glial activation was evaluated by Laser Scanning Confocal microscopy using specific antibodies against GFAP (glial fibrillary acidic protein). Retina sections were fixed in acidic methanol at −20° C. for 2 min, followed by three washes with phosphate buffer (PBS) for 5 min each. Retina sections were permeabilized with a tris buffer (TBS) with 0.025% Triton® X-100 and incubated for 2 hours at room temperature in a blocker solution composed of 1% BSA (serum albumin bovine) and 10% goat serum in 10% PBS. Retina sections were incubated with rabbit anti-GFAP antibody (Abcam Ltd, Cambridge, UK; 1:500 dilution prepared in blocking solution) overnight at 4° C. in a humid atmosphere. After three washes with PBS solution, 5 minutes each, the retina sections were incubated with the secondary antibody Alexa 488 goat anti-rabbit (Invitrogen, San Diego Calif., USA) at a 1:200 dilution prepared in blocking solution. Retina sections were washed three times with PBS, counterstained with Hoechst, mounted with Mounting Medium Fluorescence (Prolong, Invitrogen) and mounted with a coverslip. Comparative digital images from samples were recorded with FluoView FV 1000 Laser Scanning Confocal microscope Olympus using identical settings for brightness and contrast.
A scoring system based on the extent of GFAP staining described in Anderson et al., Glial and endothelial blood-retinal barrier responses to amyloid-β in the neural retina of the rat, Olin. Ophthalmol., 2008, 2, 801-816, was used in order to assess the degree of glial activation. This scoring system was as follows: • Score 1: Müller cell endfeet/ ganglion retinal cell layer (GCL) only; • Score 2: Müller cell endfeet region/GCL plus a few proximal processes; • Score 3: Müller cell endfeet plus many processes, but not extending to the outer nuclear layer (ONL) of the retina; • Score 4: Müller cell endfeet plus processes throughout with some in the ONL; • Score 5: Müller cell endfeet plus lots of dark processes from GCL to outer margin of ONL.
The score was assessed on the retina of each animal and a minimum of 10 sections per retina.

COc1ccccc1Oc1c(NS(=O)(=O)c2ccc(C(C)(C)C)cc2)nc(-c2ncccn2)nc1OCCO [Bosentan]
apoptosis in all retinal layers (in words) (diabetic mice (db/db) [1]; 14 days, twice per day, versus control (db/+) and vehicle-treated diabetic animals): reduced apoptosis | TUNEL staining-positive cell percentage, GCL, mean (standard deviation) (diabetic mice (db/db) [1]; topical ocular, twice daily for 14 days, ganglion cell layer, p <0.001 vs vehicle): 1.42 (0.38) % | TUNEL staining-positive cell percentage, INL, mean (standard deviation) (diabetic mice (db/db) [1]; topical ocular, twice daily for 14 days, inner nuclear layer, p <0.001 vs vehicle): 0.36 (0.31) % | TUNEL staining-positive cell percentage, ONL, mean (standard deviation) (diabetic mice (db/db) [1]; topical ocular, twice daily for 14 days, outer nuclear layer, p <0.001 vs vehicle): 0 (0.07) % | glial activation / reactive gliosis (in words) (diabetic mice (db/db) [2]; 14 days, twice per day, versus vehicle-treated diabetic animals): significant decrease of reactive gliosis; also recorded: less glial activation | degree of glial activation (percentage for each score of GFAP expression), Score 1 (diabetic mice (db/db) [2]; one 5 μl drop of formulation of Example 1 per eye, twice daily for 14 days, Score 1: Müller cell endfeet/GCL only): 85% | degree of glial activation (percentage for each score of GFAP expression), Score 2 (diabetic mice (db/db) [2]; one 5 μl drop of formulation of Example 1 per eye, twice daily for 14 days, Score 2: endfeet region/GCL plus a few proximal processes): 15% | degree of glial activation (percentage for each score of GFAP expression), Score 3 (diabetic mice (db/db) [2]; one 5 μl drop of formulation of Example 1 per eye, twice daily for 14 days, Score 3: endfeet plus many processes, not extending to ONL): 0% | degree of glial activation (percentage for each score of GFAP expression), Score 4 (diabetic mice (db/db) [2]; one 5 μl drop of formulation of Example 1 per eye, twice daily for 14 days, Score 4: endfeet plus processes throughout with some in the ONL): 0% | degree of glial activation (percentage for each score of GFAP expression), Score 5 (diabetic mice (db/db) [2]; one 5 μl drop of formulation of Example 1 per eye, twice daily for 14 days, Score 5: endfeet plus lots of dark processes from GCL to outer margin of ONL): 0% | share with GFAP score less than 2 (diabetic mice (db/db) [2]; two weeks of administration): 85% | GFAP score of the treated animals (diabetic mice (db/db) [2]; two weeks of administration, all cases, score scale 1-5): < 3

— US10716750B2, “Topical ophthalmic formulations of endothelin receptor antagonists” (Retinset, S.L., priority 2015, dated 2020)
